Among the data in the OligoGym collection are target mRNA inhibition values, retold here.

In this data set the target is SOD1. Particulars: ASO.

Several values for one entry are separate records, joined by “and”; a condition that tells them apart may be missing. Equal values may be shown once. After the bases stand the sugars from the 5' end (letter, count) and the backbone: PS all phosphorothioate, else s phosphorothioate and o phosphodiester by linkage. Methylation of C is not given here. e = 2'-O-(2-methoxyethyl) (MOE); k = constrained ethyl (cEt); d = 2'-deoxy (DNA)

Regarding “AAAGTCACACAATTACACTT (sugars e5 d10 e5, PS)”, the target mRNA inhibition (HepG2, 5 µM) is 15%.
Regarding “AAAGTGAGGACCTGCAC (sugars e3 k2 d7 k2 e3, PS)”, the target mRNA inhibition (HepG2, 3 µM) worked out at 20%.
Where the note is “HepG2, 5 µM”, “AAATACAGGTCATTGAA (sugars e2 k2 d9 k2 e2, PS)” gave a target mRNA inhibition of 47%.
“AAATCAGTTTCTCACTACAG (sugars e5 d10 e5, PS)” returned a target mRNA inhibition (HepG2, 5 µM) of 0%.
The sequence “AAATTGATGATGCCCTGCAC (sugars e5 d10 e5, PS)” yielded a target mRNA inhibition (HepG2, 4 µM) of 14%.
As to “AACAGATGAGTTAAGGG (sugars e2 k2 d9 k2 e2, PS)”, the target mRNA inhibition (HepG2, 0.1875 µM) was 27%; the target mRNA inhibition (HepG2, 0.75 µM) turned out to be 49%; the target mRNA inhibition (HepG2, 3 µM) came to 82%; the target mRNA inhibition (HepG2, 4 µM) was 86% and 82%; the target mRNA inhibition (HepG2, 12 µM) is 89% and 92%.
Turning to “AACATGCCTCTCTTCAT (sugars e3 k2 d7 k2 e3, PS)”, the target mRNA inhibition (HepG2, 3 µM) is 13%.
Where the note is “HepG2, 5 µM”, “AACTATACAAATCTTCC (sugars e2 k2 d9 k2 e2, PS)” returned a target mRNA inhibition of 63%.
For the setting “HepG2, 4 µM”, “AACTCGCTAGGCCACGCCGA (sugars e5 d10 e5, PS)” registered a target mRNA inhibition of 44%.
With “AAGTCACACAATTACAC (sugars e2 k2 d9 k2 e2, PS)”, the target mRNA inhibition (HepG2, 5 µM) worked out at 37%.
Turning to “AAGTCATCTGCTTTTTC (sugars e3 k2 d7 k2 e3, PS)”, where the note is “HepG2, 3 µM”, the target mRNA inhibition was determined as 83%.
Still for that read-out and setting: as for “AAGTCTGGCAAAATACA (sugars e3 k2 d7 k2 e3, PS)”, the figure is 10%.
Same read-out and setting: the value for “AAGTGAGGACCTGCACT (sugars e3 k2 d7 k2 e3, PS)” was 16%; that for “AATACAGGTCATTGAAA (sugars e3 k2 d7 k2 e3, PS)” was 6%.
“AATCAGTTTCTCACTAC (sugars e2 k2 d9 k2 e2, PS)” showed a target mRNA inhibition (HepG2, 5 µM) of 53%.
Still for that read-out and setting: as for “AATCTTCCAAGTGATCA (sugars e2 k2 d9 k2 e2, PS)”, the figure is 38%; as for “AATGGTCTCCTGAGAGTGAG (sugars e5 d10 e5, PS)”, 22%.
Sequence “AATTACACCACAAGCCA (sugars e2 k2 d8 k2 e3, PS)” showed a target mRNA inhibition (HepG2, 4 µM) of 62%.
As for “AATTACACCACAAGCCA (sugars e3 k2 d7 k2 e3, PS)”, the target mRNA inhibition (HepG2, 3 µM) stood at 21%.
In the case of “AATTTGGATTCTTTTAATAG (sugars e5 d10 e5, PS)”, the target mRNA inhibition (HepG2, 5 µM) turned out to be 14%.
On the same count and under the same terms, the value for “ACAAGTTTAATACCCAT (sugars e2 k2 d9 k2 e2, PS)” was 61%.
Where the note is “HepG2, 3 µM”, “ACAAGTTTAATACCCAT (sugars e3 k2 d7 k2 e3, PS)” returned a target mRNA inhibition of 23%.
Under “HepG2, 5 µM”, “ACACCACAAGCCAAACGACT (sugars e5 d10 e5, PS)” displayed a target mRNA inhibition of 49%.
For the setting “HepG2, 5 µM”, “ACAGGGTTTTTATTCAC (sugars e2 k2 d8 k2 e3, PS)” yielded a target mRNA inhibition of 29%.
Sequence “ACAGGTCATTGAAACAG (sugars e3 k2 d7 k2 e3, PS)” yielded a target mRNA inhibition (HepG2, 3 µM) of 14%.
With “ACAGTGTTTAATGTTTA (sugars e3 k2 d7 k2 e3, PS)”, the target mRNA inhibition was 35% (HepG2, 0.1875 µM); 71% (HepG2, 0.75 µM); 56% and 79% (HepG2, 3 µM); 82% (HepG2, 12 µM).
On to “ACAGTGTTTAATGTTTAT (sugars e5 d8 e5, linkages s1 o3 s9 o2 s2)”, for which the target mRNA inhibition is 0% (A431, 0.12 µM); 18% (A431, 0.6 µM); 26% (A431, 3 µM); 45% (A431, 15 µM); 19% (HepG2, 0.222 µM); 30% (HepG2, 0.667 µM). The target mRNA inhibition was 46% and 50% (HepG2, 2 µM); 70% (HepG2, 6 µM).
As for “ACATGCCTCTCTTCATC (sugars e3 k2 d7 k2 e3, PS)”, the target mRNA inhibition (HepG2, 3 µM) amounted to 0%.
Consider “ACCTGCACTGGTACAGCCTG (sugars e5 d10 e5, PS)”, for which the target mRNA inhibition (HepG2, 5 µM) is 46% and 48%.
For the setting “HepG2, 4 µM”, “ACGACGCAAACCAGCACCCC (sugars e5 d10 e5, PS)” displayed a target mRNA inhibition of 30%.
The same measure, in the same setting: as for “ACTACATCCAAGGGAAT (sugars e2 k2 d9 k2 e2, PS)”, the figure is 48%.
On to “ACTACATCCAAGGGAAT (sugars e3 k2 d7 k2 e3, PS)”, for which the target mRNA inhibition (HepG2, 3 µM) was found to be 7%.
Take “ACTTTTAAGATTACAGTGTT (sugars e5 d10 e5, PS)”: under “HepG2, 5 µM”, the target mRNA inhibition came to 24%.
Sequence “AGACTACATCCAAGGGA (sugars e2 k2 d8 k2 e3, PS)” yielded a target mRNA inhibition (HepG2, 4 µM) of 53%.
Sequence “AGACTACATCCAAGGGA (sugars e2 k2 d9 k2 e2, PS)” had a target mRNA inhibition (HepG2, 4 µM) of 55%.
Same read-out and setting: as for “AGCACCCCGTCTCCGCGACT (sugars e5 d10 e5, PS)”, the figure is 24%.
As to “AGCAGGATAACAGATGAGTT (sugars e5 d10 e5, PS)”, the target mRNA inhibition is, setting by setting: (HepG2, 4 µM) 70%; (HepG2, 12 µM) 89%.
For the setting “HepG2, 5 µM”, “AGCCTCATAATAAGTGC (sugars e2 k2 d8 k2 e3, PS)” came in with a target mRNA inhibition of 16%.
On the same count and under the same terms, the value for “AGCCTCATAATAAGTGC (sugars e2 k2 d9 k2 e2, PS)” was 11%; that for “AGCCTCATAATAAGTGCCAT (sugars e5 d10 e5, PS)” was 6%.
For the sequence “AGGATAACAGATGAGTT (sugars e2 k2 d8 k2 e3, PS)”, the target mRNA inhibition reads like this: (HepG2, 0.1875 µM) 30%; (HepG2, 0.75 µM) 71%; (HepG2, 3 µM) 87%; (HepG2, 4 µM) 84%; (HepG2, 12 µM) 95%.
Turning to “AGGCTTGAATGACAAAGAAA (sugars e5 d10 e5, PS)”, the target mRNA inhibition (HepG2, 5 µM) came to 27%.
“AGGGTTTTTATTCACAG (sugars e3 k2 d7 k2 e3, PS)” had a target mRNA inhibition (HepG2, 3 µM) of 24%.
Sequence “AGGTCATTGAAACAGAC (sugars e2 k2 d9 k2 e2, PS)” displayed a target mRNA inhibition (HepG2, 5 µM) of 44%.
Same read-out and setting: the value for “AGTGAGATCACAGAATCTTC (sugars e5 d10 e5, PS)” was 30%.
As for “AGTGATCATAAATCAGT (sugars e2 k2 d9 k2 e2, PS)”, the target mRNA inhibition (HepG2, 5 µM) was 32%.
For “AGTGTTTAATGTTTAT (sugars ekddddddddekekee, linkages s1 o1 s8 o3 s2)”, the target mRNA inhibition (A431, 0.12 µM) was 10%; the target mRNA inhibition (A431, 0.6 µM) came to 22%; the target mRNA inhibition (A431, 3 µM) turned out to be 48%; the target mRNA inhibition (A431, 15 µM) stood at 77%.
On to “AGTGTTTAATGTTTATC (sugars e2 k2 d8 e5, linkages s1 o2 s9 o2 s2)”, for which the target mRNA inhibition worked out at 16% (A431, 0.062 µM); 43% (A431, 0.185 µM); 65% (A431, 0.556 µM); 68% (A431, 1.667 µM); 79% (A431, 5 µM); 83% (A431, 15 µM). Besides, the target mRNA inhibition runs as follows: (SH-SY5Y, 0.062 µM) 33%; (SH-SY5Y, 0.185 µM) 10%; (SH-SY5Y, 0.556 µM) 43%; (SH-SY5Y, 1.667 µM) 61%; (SH-SY5Y, 5 µM) 81%; (SH-SY5Y, 15 µM) 77%.
In the case of “AGTGTTTAATGTTTATC (sugars e2 k2 d8 k2 e3, linkages s1 o2 s9 o2 s2)”, the target mRNA inhibition stood at 31% (A431, 0.12 µM); 68% (A431, 0.6 µM); 83% (A431, 3 µM); 86% (A431, 15 µM); 68% (HepG2, 0.222 µM); 76% (HepG2, 0.667 µM). Also, the target mRNA inhibition came out at 86% (HepG2, 2 µM) and 84% (HepG2, 6 µM).
For “AGTGTTTAATGTTTATC (sugars e3 k2 d7 k2 e3, PS)”, the target mRNA inhibition reads like this: (HepG2, 0.1875 µM) 52%; (HepG2, 0.75 µM) 78%; (HepG2, 3 µM) 67% and 86%; (HepG2, 12 µM) 85%.
Regarding “AGTTTAATACCCATCTG (sugars e3 k2 d7 k2 e3, PS)”, the target mRNA inhibition (HepG2, 3 µM) came out at 10%.
Turning to “ATAACAGATGAGTTAAG (sugars e2 k2 d8 k2 e3, PS)”, the target mRNA inhibition (HepG2, 4 µM) is 27%.
The same measure, in the same setting: the value for “ATAACAGATGAGTTAAG (sugars e2 k2 d9 k2 e2, PS)” was 42%.
As for “ATACAGGTCATTGAAAC (sugars e2 k2 d9 k2 e2, PS)”, the target mRNA inhibition (HepG2, 5 µM) stood at 22%.
“ATACATTTCTACAGCT (sugars ekddddddddekekee, linkages s1 o1 s8 o3 s2)”: the target mRNA inhibition was 0% (A431, 0.12 µM); 9% (A431, 0.6 µM); 0% (A431, 3 µM); 25% (A431, 15 µM); 43% (HepG2, 0.222 µM); 58% (HepG2, 0.667 µM). Also, the target mRNA inhibition reads like this: (HepG2, 2 µM) 79%; (HepG2, 6 µM) 91%.
As for “ATACATTTCTACAGCT (sugars kekeddddddddekek, linkages s1 o3 s8 o1 s2)”, the target mRNA inhibition is 15% (A431, 0.12 µM); 14% (A431, 0.6 µM); 16% (A431, 3 µM); 52% (A431, 15 µM); 55% (HepG2, 0.222 µM); 73% (HepG2, 0.667 µM). In addition, the target mRNA inhibition runs as follows: (HepG2, 2 µM) 89%; (HepG2, 6 µM) 95%.
For “ATACATTTCTACAGCTA (sugars e3 k2 d7 k2 e3, linkages s1 o2 s9 o2 s2)”, the target mRNA inhibition came out at 4% (A431, 0.12 µM); 13% (A431, 0.6 µM); 26% (A431, 3 µM); 37% (A431, 15 µM).
